Laboratory results from US8003649B2 (AstraZeneca AB, priority 2007, dated 2011).

Target: T1, Androgen Receptor (AR) (Homo sapiens, UniProt P10275, T878A)
T1 construct: cell based immuno-fluorescence assay using the LNCaP prostate epithelial cell line; endogenous in cells; host or cells: LNCaP clone FGC (ATCC CRL-1740)
T1 sequence (P10275 1-920 T878A): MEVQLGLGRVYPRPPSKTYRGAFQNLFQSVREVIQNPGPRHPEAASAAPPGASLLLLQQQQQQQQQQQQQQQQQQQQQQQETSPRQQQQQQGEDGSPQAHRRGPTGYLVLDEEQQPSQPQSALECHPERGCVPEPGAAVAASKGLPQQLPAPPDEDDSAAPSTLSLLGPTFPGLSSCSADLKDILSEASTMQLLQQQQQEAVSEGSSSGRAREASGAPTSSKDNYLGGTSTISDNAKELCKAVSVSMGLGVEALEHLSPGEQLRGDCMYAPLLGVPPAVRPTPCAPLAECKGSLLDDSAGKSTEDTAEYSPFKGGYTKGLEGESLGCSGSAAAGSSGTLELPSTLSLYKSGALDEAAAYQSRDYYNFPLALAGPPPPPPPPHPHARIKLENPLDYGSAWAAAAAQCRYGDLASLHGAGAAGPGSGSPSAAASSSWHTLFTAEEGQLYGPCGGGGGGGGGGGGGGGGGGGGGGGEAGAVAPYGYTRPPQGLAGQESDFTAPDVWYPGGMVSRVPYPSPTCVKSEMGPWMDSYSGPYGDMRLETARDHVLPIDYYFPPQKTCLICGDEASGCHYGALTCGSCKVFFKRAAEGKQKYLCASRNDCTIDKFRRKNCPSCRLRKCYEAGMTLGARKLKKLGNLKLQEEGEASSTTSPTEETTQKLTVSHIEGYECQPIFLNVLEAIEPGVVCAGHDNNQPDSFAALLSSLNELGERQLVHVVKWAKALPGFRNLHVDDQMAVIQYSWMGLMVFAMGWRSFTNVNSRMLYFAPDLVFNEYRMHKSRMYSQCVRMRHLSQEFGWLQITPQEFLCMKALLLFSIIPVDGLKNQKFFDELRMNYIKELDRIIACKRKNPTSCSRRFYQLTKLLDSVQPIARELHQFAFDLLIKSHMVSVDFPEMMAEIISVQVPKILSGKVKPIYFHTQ
Assay: LNCaP Androgen Receptor Down-regulation Cell Assay (immunofluorescence end point)
Assay type: cell-based
Conditions: LNCaP prostate carcinoma cells, compound incubation 20-22 hours, 50% reduction of the AR signal; read-out: Androgen Receptor Down-regulation Assay (a) IC50/μM
Procedure: The ability of compounds to reduce Androgen Receptor (AR) numbers was assessed in a cell based immuno-fluorescence assay using the LNCaP prostate epithelial cell line.
a) LNCaP Androgen Receptor Down-regulation Cell Assay
A 5 ml volume of Growth Medium was added to each flask (as above except that 5% (v/v) charcoal stripped FBS (HyClone Code no. SH30068.03) was included instead of 10% (v/v) FBS). Cells were syringed at least twice using a sterile 18G×1.5″ (1.2×40 mm) broad gauge needle and cell density was measured using a haemocytometer.
Test data reported herein was generated using two different compounds preparation and dosing methods. In method (1) a 10 mM compound stock solution in 100% (v/v) DMSO was serially diluted in 4-fold steps in 100% (v/v) DMSO using a Thermo Scientific Matrix SerialMate. The diluted compounds were then further diluted 1 in 30 in assay media using a Thermo Scientific Matrix PlateMate and a 10 μl aliquot of this dilution was dosed to cells manually using a multi-channel pipette. In method (2) starting with a 10 mM compound stock solution, the Labcyte Echo 550 was used to generate a compound concentration response set diluted in 30 μl of assay media. The Echo 550 is a liquid handler that uses acoustic technology to perform direct microplate-to-microplate transfers of DMSO compound solutions. The system can be programmed to transfer volumes as low as […] in multiple increments between microplates and in so doing generates a serial dilution of compound which is then back-filled to normalise the DMSO concentration across the dilution range. A 10 μl volume of diluted compound is then dosed to cells using a Thermo Scientific Matrix PlateMate.
Plates were incubated overnight at 37° C., 5% CO2. Wells were then dosed with compound prepared by one of the 2 methods above and further incubated for 20-22 hours at 37° C., 5% CO2. […] This fixative solution was removed and cells were washed with 250 μl of PBS/0.05% (v/v) Tween 20 (PBST) using an automated plate washer. This process was then repeated twice more.
Immunostaining was performed at room temperature. Cells were permeabilised by the addition of 35 μl of PBS containing 0.5% Tween 20 and incubated for 1 hour at room temperature. Permeabilisation solution was removed and cells were washed with 250 μl of PBST using an automated plate washer. This process was then repeated twice more. 35 μl of Blocking Solution (PBST containing 3% (w/v) Marvel dried skimmed milk (Nestle)) was added to each well and plates were incubated at room temperature for a minimum of 1 hour. […] Then this primary antibody solution was removed from the wells followed by 3×100 μl PBST washes using a plate washer. […] Henceforth, wherever possible, plates were protected from light exposure. The plates were incubated for 1 hour and then the secondary antibody solution was removed from the wells followed by 3×100 ul PBST washes using a plate washer. Then 50 μl of PBST was added to each well and plates were covered with a black plate seal and stored at 4° C. before being read. Plates were read within six hours of completing the immunostaining.
The Green Fluorescent AR-associated signal in each well was measured using an Acumen Explorer HTS Reader (TTP Labtech Ltd., Cambridge). […] The instrument is a laser-scanning fluorescence microplate cytometer which samples the well at regular intervals and uses threshold algorithms to identify all fluorescent intensities above the solution background without the need to generate and analyse an image. These fluorescent objects can be quantified and provide a measure of the AR levels in cells. Fluorescence dose response data obtained with each compound was exported into a suitable software package (such as Origin) to perform curve fitting analysis. Down-regulation of AR levels was expressed as an IC50 value.

First: FC(F)(F)c1nnc2ccc(N3CCN(Cc4cscn4)CC3)nn12 [Example 61, 6-[4-(1,3-thiazol-4-ylmethyl)piperazin-1-yl]-3-(trifluoromethyl)-[1,2,4]triazolo[4,3-b]pyridazine]
Second: FC(F)(F)c1nnc2ccc(N3CCN(Cc4cccs4)CC3)nn12 [Example 70, 6-[4-(thiophen-2-ylmethyl)piperazin-1-yl]-3-(trifluoromethyl)-[1,2,4]triazolo[4,3-b]pyridazine]
The DC50 of the first is 12-fold higher: 7.4 µM for the first, 0.64 µM for the second.

`FC(F)(F)c1nnc2ccc(N3CCN(Cc4ccccc4Cl)CC3)nn12` [Example 62, 6-[4-[(2-chlorophenyl)methyl]piperazin-1-yl]-3-(trifluoromethyl)-[1,2,4]triazolo[4,3-b]pyridazine] and `Fc1ccccc1CN1CCN(c2ccc3nnc(C(F)(F)F)n3n2)CC1` [Example 72, 6-[4-[(2-fluorophenyl)methyl]piperazin-1-yl]-3-(trifluoromethyl)-[1,2,4]triazolo[4,3-b]pyridazine] are within 1.5-fold of each other in DC50: 0.72 µM for the first, 1 µM for the second.

`FC(F)(F)c1nnc2ccc(N3CCN(Cc4cccc5cc[nH]c45)CC3)nn12` [Example 63, 6-[4-(1H-indol-7-ylmethyl)piperazin-1-yl]-3-(trifluoromethyl)-[1,2,4]triazolo[4,3-b]pyridazine] and `FC(F)(F)c1nnc2ccc(N3CCN(Cc4ccc5[nH]ccc5c4)CC3)nn12` [Example 77, 6-[4-(1H-indol-5-ylmethyl)piperazin-1-yl]-3-(trifluoromethyl)-[1,2,4]triazolo[4,3-b]pyridazine] are within 1.5-fold of each other in DC50: 1.5 µM for the first, 1.4 µM for the second.

Compared with `FC(F)(F)c1nnc2ccc(N3CCN(Cc4cnc5ccccc5c4)CC3)nn12` [Example 64, 3-[[4-[3-(trifluoromethyl)[1,2,4]triazolo[4,3-b]pyridazin-6-yl]piperazin-1-yl]methyl]quinoline], `Cn1c(CN2CCN(c3ccc4nnc(C(F)(F)F)n4n3)CC2)cc2ccccc21` [Example 69, 6-[4-[(1-methylindol-2-yl)methyl]piperazin-1-yl]-3-(trifluoromethyl)-[1,2,4]triazolo[4,3-b]pyridazine] is 1.8-fold lower in DC50: 2.5 µM for the first, 1.4 µM for the second.

First: FC(F)(F)c1nnc2ccc(N3CCN(Cc4cccc5cnccc45)CC3)nn12 [Example 65, 5-[[4-[3-(trifluoromethyl)-[1,2,4]triazolo[4,3-b]pyridazin-6-yl]piperazin-1-yl]methyl]isoquinoline]
Second: FC(F)(F)c1nnc2ccc(N3CCN(Cc4cccc5ccccc45)CC3)nn12 [Example 66, 6-[4-(naphthalen-1-ylmethyl)piperazin-1-yl]-3-(trifluoromethyl)-[1,2,4]triazolo[4,3-b]pyridazine]
The DC50 of the first is 2.3-fold higher: 0.76 µM for the first, 0.33 µM for the second.

First: FC(F)(F)c1ccccc1CN1CCN(c2ccc3nnc(C(F)(F)F)n3n2)CC1 [Example 67, 3-(trifluoromethyl)-6-[4-[[2-(trifluoromethyl)phenyl]methyl]piperazin-1-yl]-[1,2,4]triazolo[4,3-b]pyridazine]
Second: COc1ccccc1CN1CCN(c2ccc3nnc(C(F)(F)F)n3n2)CC1 [Example 75, 6-[4-[(2-methoxyphenyl)methyl]piperazin-1-yl]-3-(trifluoromethyl)-[1,2,4]triazolo[4,3-b]pyridazine]
The DC50 of the first is 2.3-fold lower: 1 µM for the first, 2.3 µM for the second.

Compared with `Cn1cc(CN2CCN(c3ccc4nnc(C(F)(F)F)n4n3)CC2)c2ccccc21` [Example 71, 6-[4-[(1-methylindol-3-yl)methyl]piperazin-1-yl]-3-(trifluoromethyl)-[1,2,4]triazolo[4,3-b]pyridazine], `Cn1cccc1CN1CCN(c2ccc3nnc(C(F)(F)F)n3n2)CC1` [Example 87, 6-[4-[(1-methylpyrrol-2-yl)methyl]piperazin-1-yl]-3-(trifluoromethyl)-[1,2,4]triazolo[4,3-b]pyridazine] is 3.7-fold higher in DC50: 1.4 µM for the first, 5.2 µM for the second.

Going from `CS(=O)(=O)c1cccc(CN2CCN(c3ccc4nnc(C(F)(F)F)n4n3)CC2)c1` [Example 74, 6-[4-[(3-methylsulfonylphenyl)methyl]piperazin-1-yl]-3-(trifluoromethyl)-[1,2,4]triazolo[4,3-b]pyridazine] to `COc1cccc(CN2CCN(c3ccc4nnc(C(F)(F)F)n4n3)CC2)c1` [Example 82, 6-[4-[(3-methoxyphenyl)methyl]piperazin-1-yl]-3-(trifluoromethyl)-[1,2,4]triazolo[4,3-b]pyridazine], the DC50 falls from 5.6 µM to 1.6 µM (3.5-fold).

Going from `FC(F)(F)c1nnc2ccc(N3CCN(Cc4cccc5c4OCCO5)CC3)nn12` [Example 76, 6-[4-(2,3-dihydro-1,4-benzodioxin-5-ylmethyl)piperazin-1-yl]-3-(trifluoromethyl)-[1,2,4]triazolo[4,3-b]pyridazine] to `FC(F)(F)c1nnc2ccc(N3CCN(Cc4ccc5c(c4)OCCO5)CC3)nn12` [Example 88, 6-[4-(2,3-dihydro-1,4-benzodioxin-6-ylmethyl)piperazin-1-yl]-3-(trifluoromethyl)-[1,2,4]triazolo[4,3-b]pyridazine], the DC50 falls from 2.3 µM to 1.5 µM (1.5-fold).

`FC(F)(F)c1nnc2ccc(N3CCN(Cc4ccco4)CC3)nn12` [Example 79, 6-[4-(furan-2-ylmethyl)piperazin-1-yl]-3-(trifluoromethyl)-[1,2,4]triazolo[4,3-b]pyridazine] and `FC(F)(F)c1nnc2ccc(N3CCN(Cc4ccc[nH]4)CC3)nn12` [Example 83, 6-[4-(1H-pyrrol-2-ylmethyl)piperazin-1-yl]-3-(trifluoromethyl)-[1,2,4]triazolo[4,3-b]pyridazine] are within 1.5-fold of each other in DC50: 2.4 µM for the first, 2.5 µM for the second.

Going from `FC(F)(F)c1nnc2ccc(N3CCN(Cc4cccnc4)CC3)nn12` [Example 81, 6-[4-(pyridin-3-ylmethyl)piperazin-1-yl]-3-(trifluoromethyl)-[1,2,4]triazolo[4,3-b]pyridazine] to `FC(F)(F)c1nnc2ccc(N3CCN(Cc4ccc5c(c4)CCO5)CC3)nn12` [Example 84, 6-[4-(2,3-dihydro-1-benzofuran-5-ylmethyl)piperazin-1-yl]-3-(trifluoromethyl)-[1,2,4]triazolo[4,3-b]pyridazine], the DC50 falls from 7.2 µM to 1.8 µM (4-fold).

Compound `FC(F)(F)c1nnc2ccc(N3CCN(Cc4ccc5c(c4)OCO5)CC3)nn12` [Example 85, 6-[4-(1,3-benzodioxol-5-ylmethyl)piperazin-1-yl]-3-(trifluoromethyl)-[1,2,4]triazolo[4,3-b]pyridazine] has a DC50 of 1.6 µM.
